# Measured values taken from patent US20110207655A1, “CYCLIC DEPSIPEPTIDE COMPOUND AND USE THEREOF” (Astellas Pharma Inc., priority 2008, published 2011).
# Starred links: 1 amine or outer side, 2 acyl side, 3 side chain; linkers in the order of their positions; H or OH if unused. Positions of bridges follow the written chain, without caps; N, C: chain ends. Non-standard residues stand in square brackets, D forms with d. Residues, ends and D or L forms follow the SMILES beside them. *: point of attachment. X8 = CC(=O)NC(C(=O)OC(C(C)C)C(N[*:1])C(=O)[*:2])C(O)C(C)C; X2 = CSCC(O)C(NC(C)=O)C(=O)OC(C(C)C)C(N[*:1])C(=O)[*:2]; X3 = CC(C)C(O[*:3])C(N[*:1])C(=O)[*:2]; X7 = O=C(C(Cc1ccccc1F)O[*:1])[*:2]; X4 = CCCC(=O)NC(C(=O)*)C(O)C(C)C; X5 = CSCC(=O)NC(C(=O)*)C(O)C(C)C; X6 = CCC(=O)NC(C(=O)*)C(O)C(C)C; PhLac = O=C(O)[CH](O)Cc1ccccc1; NMeT = CN[CH](C(=O)O)[CH](C)O; NMeA = CN[CH](C)C(=O)O; NMeDha = C=C(NC)C(=O)O
# System: Gq/11
# Test: Inhibitory action on Gq/11: LTD4-induced cellular Ca2+ change in CHO cells stably expressing CysLTR2 (FLIPR)
# Assay type: cell-based
# Details: 10 nM LTD4, maximum Fluo-4 fluorescence intensity, read-out: Gq/11 inhibitory activities (IC50 values)
# Protocol: The test was carried out according to the method of Non-Patent Citation 3, using a leukotriene receptor CysLTR2 (cysteinyl leukotriene receptor 2), which is known to activate Gq/11. CHO cells stably expressing CysLTR2 were seeded on a 96-well black/clear bottom plate (manufactured by Becton, Dickinson and Company) at 20,000 cells per well, and after 24 hours of seeding, the medium was discarded. Then, Hanks BSS (GIBCO Inc.) including 2 μM Fluo-4, AM (manufactured by Molecular Probe Co.), 0.004% pluronic acid, 1% FBS, 20 mM HEPES, and 2.5 mM probenecid was added thereto at 100 μL per well, followed by incubation at 37° C. for 1 hour. After incubation, the resultant was washed four times with Hanks BSS including 20 mM HEPES, and Hanks BSS including 20 mm HEPES per well was added thereto 100 μL per well. In addition, 50 μL of a test compound that had been diluted with Hanks BSS including 20 mM HEPES to a final concentration from 1×10^−10 M to 1×10^−5 M was added thereto, followed by being left to stand at room temperature for 30 minutes. The change of cellular Ca^2+ concentration after addition of leukotriene D4 (LTD4, manufactured by Cayman Co.), which is a CysLTR2 ligand, was measured over time using an FLIPR (Molecular Device Corp.). 50 μL it of leukotriene D4 that had been diluted with Hanks BSS including 20 mM HEPES to a final concentration of 10 nM at 10 seconds after the initiation of measurement was added thereto, fluorescence intensities were measured every second for 50 seconds and every sixth second for 2 minutes, and a maximum fluorescence intensity during a measurement time of 3 minutes was observed. By plotting the concentrations and the fluorescence intensities of the test compounds, the IC50 values were calculated, which were taken as Gq/11 inhibitory activities.
row,Structure (SMILES),IC50
1,C=C1C(=O)NC(C)C(=O)N(C)C(C)C(=O)NC(C(OC(=O)C(NC(C)=O)C(O)C(C)C)C(C)C)C(=O)N(C)C(C(C)OC)C(=O)OC(C)C(NC(C)=O)C(=O)OC(Cc2ccccc2F)C(=O)N1C (centres unmarked) [Ref 5] (Ac-T[X7][NMeDha]A[NMeA][X8][NMeT](Me); ester 1-C; configuration not given here),25 nM

# Same assay, conditions: read-out: Gq/11 inhibitory activities (IC50 values), 10 nM LTD4, maximum Fluo-4 fluorescence intensity
row,Structure (SMILES),IC50
1,C=C1C(=O)NC(C)C(=O)N(C)C(C)C(=O)NC(C(OC(=O)C(NC(=O)CCC)C(O)C(C)C)C(C)C)C(=O)N(C)C(C(C)OC)C(=O)OC(C)C(NC(C)=O)C(=O)OC(Cc2ccccc2)C(=O)N1C (centres unmarked) [Ex1] (Ac-T[PhLac][NMeDha]A[NMeA][X3](X4)[NMeT](Me); ester 1-C; configuration not given here),31 nM
2,C=C1C(=O)NC(C)C(=O)N(C)C(C)C(=O)NC(C(OC(=O)C(NC(C)=O)C(O)C(C)C)C(C)C)C(=O)N(C)C(C(C)O)C(=O)OC(C)C(NC(C)=O)C(=O)OC(Cc2ccccc2)C(=O)N1C (centres unmarked) [Ex2] (Ac-T[PhLac][NMeDha]A[NMeA][X8][NMeT]; ester 1-C; configuration not given here),317 nM
3,C=C1C(=O)NC(C)C(=O)N(C)C(C)C(=O)NC(C(OC(=O)C(NC(C)=O)C(O)CSC)C(C)C)C(=O)N(C)C(C(C)OC)C(=O)OC(C)C(NC(C)=O)C(=O)OC(Cc2ccccc2)C(=O)N1C (centres unmarked) [Ex3] (Ac-T[PhLac][NMeDha]A[NMeA][X2][NMeT](Me); ester 1-C; configuration not given here),97 nM
4,C=C1C(=O)NC(C)C(=O)N(C)C(C)C(=O)NC(C(OC(=O)C(NC(C)=O)C(O)CSC)C(C)C)C(=O)N(C)C(C(C)OC)C(=O)OC(C)C(NC(C)=O)C(=O)OC(Cc2ccccc2)C(=O)N1C (centres unmarked) [Ex4] (Ac-T[PhLac][NMeDha]A[NMeA][X2][NMeT](Me); ester 1-C; configuration not given here),365 nM
5,C=C1C(=O)NC(C)C(=O)N(C)C(C)C(=O)NC(C(OC(=O)C(NC(=O)CC)C(O)C(C)C)C(C)C)C(=O)N(C)C(C(C)OC)C(=O)OC(C)C(NC(C)=O)C(=O)OC(Cc2ccccc2)C(=O)N1C (centres unmarked) [Ref 2] (Ac-T[PhLac][NMeDha]A[NMeA][X3](X6)[NMeT](Me); ester 1-C; configuration not given here),34 nM
6,C=C1C(=O)NC(C)C(=O)N(C)C(C)C(=O)NC(C(OC(=O)C(NC(=O)CSC)C(O)C(C)C)C(C)C)C(=O)N(C)C(C(C)OC)C(=O)OC(C)C(NC(C)=O)C(=O)OC(Cc2ccccc2)C(=O)N1C (centres unmarked) [Ref 3] (Ac-T[PhLac][NMeDha]A[NMeA][X3](X5)[NMeT](Me); ester 1-C; configuration not given here),56 nM
7,COC(C)C1C(=O)OC(C)C(NC(C)=O)C(=O)OC(Cc2ccccc2)C(=O)N(C)C(C)C(=O)NC(C)C(=O)N(C)C(C)C(=O)NC(C(OC(=O)C(NC(C)=O)C(O)C(C)C)C(C)C)C(=O)N1C (centres unmarked) [Ref 7] (Ac-T[PhLac][NMeA]A[NMeA][X8][NMeT](Me); ester 1-C; configuration not given here),32 nM
